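Exposure lasted 48 hours, with cells grown in 96-well plates and compounds tested at five concentrations. Here, GI50 denotes the concentration required for 50% inhibition of growth.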 Active and inactive are the calls of the source. Rule as the data show it: active = GI50 up to about 1.1 µM and inactive = higher.
How the values were obtained:
Assay in all cases: NCI anticancer screen, dose series, 48 h
DLD-1 = test system: DLD-1
DMS-273 = test system: DMS-273
HOP-18 = test system: HOP-18
LXFL 529 = test system: LXFL 529
M19-MEL = test system: M19-MEL
SNB-78 = test system: SNB-78
XF498 = test system: XF498
RXF 631 = test system: RXF 631
Hs-578T = test system: Hs-578T

Compound | GI50 (DMS-273) | GI50 (LXFL 529) | GI50 (M19-MEL) | GI50 (Hs-578T) | other results
S=c1sc2c(Cl)ncnc2n1-c1ccccc1 | 1.51 µM (inactive) | 12.4 µM (inactive) | 3.8 µM (inactive) | – | GI50 (DLD-1): 11.5 µM (inactive); GI50 (HOP-18): 19 µM (inactive); GI50 (SNB-78): 10.5 µM (inactive); GI50 (XF498): 15.2 µM (inactive)
COc1ccc(C(=O)O/N=C2/CCCCC2CN(C)C)cc1 (centres undefined) | > 100 µM (inactive) | > 100 µM (inactive) | > 100 µM (inactive) | – | GI50 (DLD-1): > 100 µM (inactive); GI50 (HOP-18): > 100 µM (inactive); GI50 (RXF 631): > 100 µM (inactive); GI50 (SNB-78): > 100 µM (inactive)
COc1ccc([S+]([O-])Cc2cc(OC)c(OC)c(OC)c2)cc1 (centres undefined) | – | – | – | > 100 µM (inactive) | –
OCC1OC(O)C(/N=C\c2ccc3c(c2)OCO3)C(O)C1O (centres undefined) | – | – | – | > 100 µM (inactive) | –
CCN1/C(=C/c2ccc3ccccc3[n+]2CC)C=Cc2ccccc21 | – | – | – | 1.01 µM (active) | –
COc1cc2c(cc1OC)[C@H]1C(COC(=O)c3ccccc3)CS/C(=N/c3ccccc3)N1CC2 (some centres undefined) | 74 µM (inactive) | 24.4 µM (inactive) | > 100 µM (inactive) | – | GI50 (DLD-1): > 100 µM (inactive); GI50 (HOP-18): > 100 µM (inactive); GI50 (SNB-78): 27 µM (inactive); GI50 (XF498): > 100 µM (inactive)
C[C@@H]1CCC2C(C)(C)C(/C=C\C=O)C3(C)OC213 (some centres undefined) | – | – | – | 21.5 µM (inactive) | –
O=C(COc1ccc(OCC(=O)N2C(=O)CN(c3ccccc3)C2=S)cc1)N1C(=O)CN(c2ccccc2)C1=S | – | – | – | > 64.4 µM (inactive) | –
CN(C)Cc1cc(/N=N/c2ccc(Cl)cc2)ccc1O | – | – | – | 15 µM (inactive) | –
COc1cc(/C=C2\NC(=S)C3Cc4c(OC)c(C)c(OC)c(OC)c4C2N3C)c(OC)c(C)c1OC (centres undefined) | 46.9 µM (inactive) | 28.8 µM (inactive) | 45.6 µM (inactive) | – | GI50 (DLD-1): 51.1 µM (inactive); GI50 (HOP-18): 27.8 µM (inactive)
N#Cc1c(N)c2c(c(-c3ccccc3)c1-c1ccccc1)C(=O)N(N)C2=O | – | – | – | 60.1 µM (inactive) | –
CNC(=O)CN(CC(N)=O)C(=O)NC | > 100 µM (inactive) | > 100 µM (inactive) | > 100 µM (inactive) | – | GI50 (DLD-1): > 100 µM (inactive); GI50 (RXF 631): > 100 µM (inactive); GI50 (SNB-78): > 100 µM (inactive); GI50 (XF498): > 100 µM (inactive)
CN(C)c1ccc(/C=c2/c3ccccc3n3nc4ccccc4c23)cc1 | – | – | – | 35.6 µM (inactive) | –
Cc1ccc(NCC(=O)N2CC(=O)Nc3ccccc32)c(C)c1 | > 100 µM (inactive) | > 100 µM (inactive) | > 100 µM (inactive) | – | GI50 (DLD-1): > 100 µM (inactive); GI50 (HOP-18): > 100 µM (inactive); GI50 (SNB-78): > 100 µM (inactive); GI50 (XF498): > 100 µM (inactive)
COC(=O)CC(c1ccccc1)C(C#N)(OP1(=O)OC(c2ccccc2)C(C)N1C)c1ccccc1 (centres undefined) | – | – | – | > 100 µM (inactive) | –
O=C(CSc1nc2ccc(I)cc2c(=O)n1Cc1ccccc1)NNC(=O)c1ccccc1 | – | – | – | 2.85 µM (inactive) | –

Compound | GI50 (DMS-273) | GI50 (LXFL 529) | GI50 (M19-MEL) | GI50 (Hs-578T) | other results
O=c1[nH]cnc2c1nnn2C1C=C(CO)C(O)C1O (centres undefined) | 23.5 µM (inactive) | > 100 µM (inactive) | > 100 µM (inactive) | – | GI50 (DLD-1): > 100 µM (inactive); GI50 (HOP-18): > 100 µM (inactive); GI50 (SNB-78): > 100 µM (inactive); GI50 (XF498): > 100 µM (inactive)
NC(C(F)(F)F)(C(F)(F)F)P(=O)(c1ccccc1)c1ccccc1 | – | – | – | > 100 µM (inactive) | –
CC(=O)Oc1c2c(c(CC=C(C)C)c3c1C(=O)C1=C[C@@H]4CC5C(C)(C)OC(C/C=C(/C)C(=O)O)(C4=O)[C@@]15O3)OC(C)(CCC=C(C)C)C=C2 (some centres undefined) | – | – | – | 0.337 µM (active) | –
CC(=O)O[C@H]1CCC2[C@@H]3CCC4=C(O)c5nocc5C[C@]4(C)C3CC[C@@]21C (some centres undefined) | > 100 µM (inactive) | > 100 µM (inactive) | > 100 µM (inactive) | – | GI50 (HOP-18): > 100 µM (inactive); GI50 (SNB-78): > 100 µM (inactive); GI50 (XF498): > 100 µM (inactive)
CCOC(=O)C(C(=O)c1ccccc1-c1ccccc1C(=O)O)=P(c1ccccc1)(c1ccccc1)c1ccccc1 | 31.8 µM (inactive) | 24.9 µM (inactive) | 27.8 µM (inactive) | – | GI50 (RXF 631): 37.8 µM (inactive); GI50 (XF498): 23.3 µM (inactive)
Cc1ccc(S(=O)(=O)N/N=c2/sc3ccccc3n2C)cc1 | – | – | – | > 100 µM (inactive) | –
CC(=O)OC1=C(c2ccccc2)S(=O)(=O)c2ccccc21 | – | – | – | > 100 µM (inactive) | –
Cc1cc(N=C2C=C(Br)C(=O)C(Br)=C2)cc(CN(CC(=O)O)CC(=O)O)c1O | – | – | – | > 100 µM (inactive) | –
O=C(Nc1ccc2ccccc2c1)Nn1cnnc1 | – | – | – | > 100 µM (inactive) | –
O=C(O)CCCc1ccc(N(CCCl)CCCl)cc1 [CHLORAMBUCIL] | 23.7 µM (inactive) | 95.5 µM (inactive) | 87.7 µM (inactive) | 189 µM (inactive) | GI50 (DLD-1): 104 µM (inactive); GI50 (HOP-18): > 81.1 µM (inactive); GI50 (RXF 631): 86.9 µM (inactive); GI50 (XF498): 55.1 µM (inactive)
COc1ccc2c(c1)C1Oc3ccccc3CC1CO2 (centres undefined) | – | – | – | 34 µM (inactive) | –
CCN1CCCC(Nc2cc(C)nc(NC(=N)Nc3ccc(Cl)c(Cl)c3)n2)C1 (centres undefined) | – | – | – | 2.02 µM (inactive) | –
COc1ccccc1/C=N/C12CC3CC(CC(C3)C1)C2 | > 100 µM (inactive) | – | > 100 µM (inactive) | – | –
COC(=O)C1=C(C(=O)OC)SC(=C2c3ccsc3-c3sccc32)S1 | – | – | – | 14.9 µM (inactive) | –
Cn1ccnc1Oc1ccc(Cl)cc1 | – | – | – | 24.4 µM (inactive) | –
C=CC(=O)Nc1ccc(NC(=O)C=C)c2c1C(=O)c1ccccc1C2=O | – | – | – | > 100 µM (inactive) | –

Source: ChEMBL document CHEMBL1201862, “PubChem BioAssay data set” (2004)
